Laboratory results reported in patent US4822818A, “Bicycle compounds, their production and use” (Takeda Chemical Industries, Ltd., priority 1980, dated 1989).
Where a name gives a salt, the structure may show the parent alone.

Tests used:
[1] = target: T1, Angiotensin I Converting Enzyme (ACE) (Oryctolagus cuniculus, UniProt P12822); test: Inhibition of Angiotensin I Converting Enzyme (ACE), substrate hippuryl-L-histidyl-L-leucine (HHL), hippuric acid produced; format: biochemical; conditions: pH 8.3, 37° C., one hour, read-out: Inhibitory Activity on ACE; for inhibition at 1 µM: Concentration 1 μM; for inhibition at 10 µM: Concentration 10 μM
T1 sequence (P12822 34-1310): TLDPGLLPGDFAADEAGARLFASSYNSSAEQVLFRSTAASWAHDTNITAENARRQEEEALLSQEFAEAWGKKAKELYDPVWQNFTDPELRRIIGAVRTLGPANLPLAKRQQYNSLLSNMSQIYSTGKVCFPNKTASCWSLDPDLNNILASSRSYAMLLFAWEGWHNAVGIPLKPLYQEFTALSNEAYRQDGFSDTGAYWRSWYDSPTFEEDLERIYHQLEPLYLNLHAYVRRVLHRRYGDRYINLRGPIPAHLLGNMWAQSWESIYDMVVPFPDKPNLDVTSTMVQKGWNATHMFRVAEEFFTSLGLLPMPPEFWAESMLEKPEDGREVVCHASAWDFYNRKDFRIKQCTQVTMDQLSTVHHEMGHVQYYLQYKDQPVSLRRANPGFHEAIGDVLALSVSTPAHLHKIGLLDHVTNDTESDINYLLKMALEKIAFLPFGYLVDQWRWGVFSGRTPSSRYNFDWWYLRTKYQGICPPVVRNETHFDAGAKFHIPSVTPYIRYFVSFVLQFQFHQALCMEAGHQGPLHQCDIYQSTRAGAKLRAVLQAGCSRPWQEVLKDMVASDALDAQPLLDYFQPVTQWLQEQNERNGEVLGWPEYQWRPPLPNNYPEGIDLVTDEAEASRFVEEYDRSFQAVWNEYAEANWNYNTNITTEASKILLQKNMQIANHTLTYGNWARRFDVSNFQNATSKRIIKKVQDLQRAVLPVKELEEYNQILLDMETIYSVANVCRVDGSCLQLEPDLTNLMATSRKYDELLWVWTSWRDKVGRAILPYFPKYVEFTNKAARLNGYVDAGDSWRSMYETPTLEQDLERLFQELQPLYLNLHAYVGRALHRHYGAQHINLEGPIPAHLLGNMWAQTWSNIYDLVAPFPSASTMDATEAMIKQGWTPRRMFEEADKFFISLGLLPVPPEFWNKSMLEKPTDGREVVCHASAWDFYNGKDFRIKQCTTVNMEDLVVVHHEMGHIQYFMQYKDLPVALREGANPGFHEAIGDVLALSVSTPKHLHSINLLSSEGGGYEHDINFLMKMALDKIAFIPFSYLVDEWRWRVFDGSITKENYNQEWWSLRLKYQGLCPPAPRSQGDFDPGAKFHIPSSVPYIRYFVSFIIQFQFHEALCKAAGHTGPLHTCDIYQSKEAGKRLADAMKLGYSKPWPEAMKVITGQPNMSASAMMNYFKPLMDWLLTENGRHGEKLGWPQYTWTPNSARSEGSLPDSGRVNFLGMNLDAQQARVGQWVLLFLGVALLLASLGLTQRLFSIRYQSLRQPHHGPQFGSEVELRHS
Description: Inhibitions of Angiotensin I Converting Enzyme (ACE) by the Compounds of this Invention. The experiment was conducted in accordance with a modification of the method described by Cushman et al. [Biochemical Pharmacology, Vol. 20, 1637(1971)]. That is, using hippuryl-L-histidyl-L-leucine(HHL) as the substrate, the ACE inhibitory activity was determined in terms of percent inhibition on the amount of hippuric acid produced by ACE when the present compound was added. […] In this experiment, a potassium phosphate buffer solution containing dimethyl sulfoxide at a concentration equal to that of the test solution was used as a control. After incubating the solution at 37° C. for one hour, 150 μl of 1N hydrochloric acid was added to the solution to terminate the reaction. After 1 ml of ethyl acetate was added, the solution was centrifuged at 3000 r.p.m. for 10 minutes. A 0.5 ml aliquot was separated from the ethyl acetate layer and dried at a temperature below 50° C. under nitrogen gas streams. The residue was mixed with 5 ml of 1M aqueous sodium chloride and the mixture was subjected to colorimetry at a wavelength of 228 nm.

Angiotensin I = test: Effect of present compounds against hypertensive activity of angiotensin I in rats, oral administration; format: in vivo, Male rats (Sprague-Dawley); conditions: rat, oral 13.8 μM/kg, angiotensin I 300 ng/kg i.v., corrected by angiotensin II reaction; for Percent Inhibition against Hypertensive Reaction by Angiotensin I, After 20 min.: 20 min after administration; for Percent Inhibition against Hypertensive Reaction by Angiotensin I, After 60 min.: 60 min after administration; for Percent Inhibition against Hypertensive Reaction by Angiotensin I, After 120 min.: 120 min after administration
Description: Effect of Present Compounds against Hypertensive Activity of Angiotensin I
Male rats (Sprague-Dawley) weighing 250 g to 350 g which were fed under free access to drinking water and feeds were used as experimental animals. The rats were anesthetized with intraperitoneal administration of pentobarbital sodium (50 mg/kg) on the day before the test day and a polyethylene tube was inserted into each of the femoral artery for measurement of blood pressure and the femoral vein for injection of angiotensin I and II, and then the tubes were fixed.
On the test day, an average blood pressure in the control phase was recorded on an electric hemodynamometer (MP-4T model manufactured by Nippon Koden, Japan) and thereafter angiotensin I and then angiotensin II were injected through the femoral vein at a dose of 300 ng/kg and 100 ng/kg respectively, to measure the hypertensive activity. Then, 13.8 μM/kg of the compound of this invention was administered orally as an aqueous solution or an aqueous gum arabic suspension, and 20, 60 and 120 minutes after the administration, angiotensin I and II were injected repeatedly to trace hypertensive reactions. In calculating the percent inhibition to the hypertensive activity of angiotensin I, the percent inhibitory value was corrected based on the variation with time in the hypertensive reaction by angiotensin II.

Row | Compound | inhibition at 1 µM [1] [%] | inhibition at 10 µM [1] [%] | Percent Inhibition against Hypertensive Reaction by Angiotensin I, After 20 min. (Angiotensin I) [%] | Percent Inhibition against Hypertensive Reaction by Angiotensin I, After 60 min. (Angiotensin I) [%] | Percent Inhibition against Hypertensive Reaction by Angiotensin I, After 120 min. (Angiotensin I) [%]
1 | C[C@H](N[C@@H](CCc1ccccc1)C(=O)O)C(=O)N(CC(=O)O)C1Cc2ccccc2C1 [Example 19, N-(1-(S)-carboxyl-3-phenylpropyl)-L-alanyl-N-(indan-2-yl)glycine] | 95 | 98 | – | – | –
2 | CCCOC(=O)C(CCc1ccccc1)N[C@@H](C)C(=O)N(CC(=O)O)C1Cc2ccccc2C1.Cl (stereo partly drawn) [Example 7, N-(1-propoxycarbonyl-3-phenylpropyl)-L-alanyl-N-(indan-2-yl)glycine hydrochloride] | 91 | 97 | 84 | 91 | 96
3 | CC(C)OC(=O)C(CCc1ccccc1)N[C@@H](C)C(=O)N(CC(=O)O)C1Cc2ccccc2C1.Cl (stereo partly drawn) [Example 9, N-(1-isopropoxycarbonyl-3-phenylpropyl)-L-alanyl-N-(indan-2-yl)glycine hydrochloride] | 72 | 95 | 88 | 71 | 51
4 | CCOC(=O)[C@H](CCc1ccc(OC)c(OC)c1)N[C@@H](C)C(=O)N(CC(=O)O)C1Cc2ccccc2C1.Cl [Example 15, N-[1-(S)-ethoxycarbonyl-3-(3,4-dimethoxyphenyl)propyl]-L-alanyl-N-(indan-2-yl)glycine hydrochloride] | – | – | 84 | 80 | 65
5 | CCOC(=O)C(CCc1ccccc1)N[C@@H](C)C(=O)N(CC(=O)O)C1Cc2ccccc2C1.Cl (stereo partly drawn) [Example 1, N-(1-ethoxycarbonyl-3-phenylpropyl)-L-alanyl-N-(indan-2-yl)glycine hydrochloride] | 87 | 97 | 93 | 88 | 77
6 | CCCCOC(=O)C(CCc1ccccc1)N[C@@H](C)C(=O)N(CC(=O)O)C1Cc2ccccc2C1 (stereo partly drawn) [Example 8, N-(1-butoxycarbonyl-3-phenylpropyl)-L-alanyl-N-(indan-2-yl)glycine hydrochloride] | 69 | 99 | – | – | –
